Source: patent US5891917A, “Certain acrylonitrile-sulfonamide derivatives” (Sugen, Inc., priority 1997, dated 1999)
Read-outs that look alike come from different tables or passages of the source.

Tests used:
Insulin Receptor = biological target: T1, Insulin Receptor (Homo sapiens, UniProt P06213); assay: Cellular Insulin Receptor ELISA; assay type: cell-based; settings: H25 cells, 100 nM insulin; read-out: ELISA DATA: IR
T1 construct: expressed in transfected cells; host or cells: H25 (NIH3T3 line overexpressing Insulin Receptor)
T1 sequence (P06213 763-1382 limits assumed, species assumed): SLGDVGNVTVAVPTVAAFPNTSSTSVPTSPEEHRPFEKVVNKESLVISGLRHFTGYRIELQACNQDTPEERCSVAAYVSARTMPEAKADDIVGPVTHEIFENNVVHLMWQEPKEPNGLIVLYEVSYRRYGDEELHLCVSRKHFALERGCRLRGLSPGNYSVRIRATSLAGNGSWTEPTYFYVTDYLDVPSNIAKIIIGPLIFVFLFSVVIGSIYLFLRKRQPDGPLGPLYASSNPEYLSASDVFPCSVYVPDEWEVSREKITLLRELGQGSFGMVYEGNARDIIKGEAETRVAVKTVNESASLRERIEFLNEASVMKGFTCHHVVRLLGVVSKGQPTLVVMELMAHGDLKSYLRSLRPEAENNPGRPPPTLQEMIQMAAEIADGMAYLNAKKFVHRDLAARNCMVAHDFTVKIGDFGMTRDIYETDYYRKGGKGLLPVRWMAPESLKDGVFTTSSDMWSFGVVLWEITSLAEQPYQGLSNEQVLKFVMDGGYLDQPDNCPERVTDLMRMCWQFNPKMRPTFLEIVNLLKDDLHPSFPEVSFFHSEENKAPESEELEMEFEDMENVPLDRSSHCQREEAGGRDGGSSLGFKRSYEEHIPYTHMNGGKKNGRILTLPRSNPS
T1 sequence (P06213 28-758 partner limits assumed, species assumed): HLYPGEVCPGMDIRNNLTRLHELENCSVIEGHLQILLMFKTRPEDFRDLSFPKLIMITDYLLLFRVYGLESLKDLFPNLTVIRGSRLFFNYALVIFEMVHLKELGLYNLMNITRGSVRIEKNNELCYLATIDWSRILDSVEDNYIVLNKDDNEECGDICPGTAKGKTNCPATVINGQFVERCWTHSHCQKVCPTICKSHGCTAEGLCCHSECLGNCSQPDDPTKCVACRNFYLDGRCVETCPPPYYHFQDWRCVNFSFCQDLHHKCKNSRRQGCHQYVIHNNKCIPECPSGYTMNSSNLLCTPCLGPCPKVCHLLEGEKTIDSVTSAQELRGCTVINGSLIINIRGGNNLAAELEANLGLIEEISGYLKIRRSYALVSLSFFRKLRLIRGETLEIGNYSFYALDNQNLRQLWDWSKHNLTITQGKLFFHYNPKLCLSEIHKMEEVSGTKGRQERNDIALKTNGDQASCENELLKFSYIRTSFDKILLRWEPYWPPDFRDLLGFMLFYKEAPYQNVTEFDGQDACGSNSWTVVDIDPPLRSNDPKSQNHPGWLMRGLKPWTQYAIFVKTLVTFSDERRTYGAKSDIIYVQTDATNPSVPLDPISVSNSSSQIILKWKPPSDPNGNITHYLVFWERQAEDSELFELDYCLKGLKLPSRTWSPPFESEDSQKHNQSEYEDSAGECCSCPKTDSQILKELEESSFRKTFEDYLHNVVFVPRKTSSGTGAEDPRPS
Procedure: Cellular Insulin Receptor ELISA (Version I)
The following protocol describes the cell line, reagents and procedures used to measure phosphotyrosine level on Insulin Receptor, which indicates Insulin Receptor tyrosine kinase activity.
MATERIALS AND REAGENTS (1). The cell line used in this assay is H25 (ATCC #CRL 8017), an NIH3T3 cell line which overexpresses Insulin Receptor.
(2). H25 cells are grown in an incubator with 5% CO2 at 37° C. The growth media is DMEM+10% FBS (heat inactivated)+2 mM L-Glutamine.
(3). For ELISA plate coating, the monoclonal anti-IR antibody named BBE is used. Antibodies are purified by the Enzymology Lab, SUGEN, Inc.
(1). The cells, grown in tissue culture dish (10 cm, Corning 25020-100) to 80-90% confluence, are harvested with Trypsin-EDTA (0.25%, 0.5 ml/D-100, GIBCO).
(2). Resuspend the cells in fresh DMEM+10% FBS+2 mM L-Glutamine, and transfer to 96-well tissue culture plate (Coming, 25806-96) at 20,000 cells/well (100 ul/well). Incubate for 1 day then replace medium to 0.01% serum medium (90/ul) and incubate in 5% CO2 and 37° C. overnight.
(1). Coat the ELISA plate (Corning 25805-96) with Anti-IR Antibody at 0.5 ug/well in 100 ul PBS at least 2 hours.
(2). Remove the coating solution, and replace with 100 ul Blocking Buffer, and shake for 30 minutes. Remove the blocking buffer and wash the plate just before adding lysate.
(1). The drugs are tested in serum-free condition.
(2). Dilute drug stock (in 100% DMSO) 1:10 with DMEM in 96-well poly-propylene plate, and transfer 10 ul/well of this solution to the cells to achieve final drug dilution 1:100, and final DMSO concentration of 1.0%. Incubate the cells in 5% CO2 at 37° C. for 2 hours.
(3). Prepare fresh cell lysis buffer (HNTG*) HNTG 2 ml EDTA 0.1 ml Na3VO4 0.1 ml Na4P2O7 0.1 ml H20 7.3 ml HNTG* 10 ml.
(4). After drug incubation for two hours, transfer 10 ul/well of 1 μM Insulin in PBS to the cells (Final Conc=100 nM), and incubate at 5% CO2 at 37° C. for 10 minutes.
(5). Remove media and add 100 ul/well HNTG* and shake for 10 minutes. Look at cells under microscope to see if they are adequately lysed.
(6). Use a 12-channel pipette to scrape the cells from the plate, and homogenize the lysate by repeat aspiration and dispense. Transfer all the lysate to the antibody coated ELISA plate [V.2.(2)], and shake for 1 hour.
(7). Remove the lysate, wash the plate, transfer anti-pTyr (1:3,000 with TBST) 100 ul/well, and shake for 30 minutes.
(8). Remove anti-pTyr, wash the plate, transfer detection antibody (1:3,000 with TBST) 100 ul/well, and shake for 30 minutes.
(9). Remove detection antibody, wash the plate, and transfer fresh ABTS/H2O2 (1.2 ul H2O2 to 10 ml ABTS) 100 ul/well to the plate to start color development.

3T3/IGF-1R cells = assay: IGF-1 Receptor Growth Assay (3T3/IGF-1R); assay type: cell-based
Procedure: IGF-1 Receptor Growth Assay
3T3/IGF-1 R (10% FBS/2 mM glutamine/DMEM)
Cell Plating--Trypsinize and count 3T3/IGF-1R and NIH 3T3 c7 cells. Dilute in growth media to 2000 cells/200 μl and seed flat bottom 96-well plates with 200 μl/well, one plate for two compounds for each cell line.
Compound preparation--Add DMSO to each compound to make 100 mM stock solutions.
Aliquot each compound to 3-4 sterile screw cap tubes and store at -20° C. After thawing, make sure the compound has gone completely back into solution. Throw away after 3 freeze/thaws.
3T3/IGF-1R cells--For each 96-well plate, make 15 ml of 10 nM IGF-1/0.5% FBS/2 mM glutamine/DMEM (30 μl of 5 μM IGF-1/15 ml).
Aliquot 1.5 ml 10 nM IGF-1/0.5% FBS to a sterile tube for each compound to be tested (the first time a compound is tested, use a 15 ml tube in case it is necessary to add extra medium to get it into solution).
Add 3 μl of 100 mM stock of each compound to a tube so 200 μM final. Shake or vortex until it goes into solution. If it is necessary to add additional medium, note the final concentration.
For the DMSO control, prepare 0.5 ml/plate of 0.2% DMSO/10 nM IGF-1/0.5% FBS (2 μl DMSO/ml).
For every two compounds, aliquot 130 μl 10 nM IGF-1/0.5% FBS to wells in columns 2-11 of a 96-well round bottom plate.
Add 260 μl of each compound to four wells in column 12.
Do 2-fold dilutions (130 μl) from columns 12 to 3 on each plate (column 2 will be for the untreated control), mixing thoroughly.
Remove medium from 3T3/IGF-1 R cells, one plate at a time.
Transfer 120 μl from each well on a compound dilution plate to the corresponding well of cells.
Add 120 μl 0.2% DMSO/10 nM IGF-1/0.5% FBS to four wells in column 1.
Add 120 μl 0.5% FBS (without IGF-1) to other four wells in column 1 for negative control.
Refeed--Repeat steps above, adding exactly the same IGF-1 and compound concentration to each well as before.
Analysis of cells--Look at wells with the highest concentrations for each compound to make sure it has not precipitated.
Detection--Follow the steps for fixing and staining described in the SOP for SRB Assays.
Data analysis--Find averages and standard deviations for each set of four OD's.
Using wells in column 2 (treated with IGF-1 but not compound) as 100%, calculate percent of control for each concentration of compound.
Determine the fold difference between the IGF-1-treated and untreated cells. It should be 2-3-fold.
Determine the percent of control for 0.2% DMSO.
Use a curve fit method to graph percent of control vs. log(molar concentration) and determine the IC50.

[1] = read-out: Growth Data: 3T3/IGF-1R-0.5% FBS
[2] = read-out: Growth Data: 3T3/IGF-1R-10% FBS

| SMILES | IC50 (Insulin Receptor) [µM] | IC50 (3T3/IGF-1R cells; [1]) [µM] | IC50 (3T3/IGF-1R cells; [2]) [µM] |
| --- | --- | --- | --- |
| CC(C)c1cc(/C=C(\C#N)S(=O)(=O)Cc2cccc(C(F)(F)F)c2)cc(C(C)C)c1O [Compound 736] | 15.1 | 14.7 | 74 |
| CC(C)c1cc(/C=C(\C#N)S(=O)(=O)c2ccc(F)cc2)cc(C(C)C)c1O [Compound 741, (E)-3-(3,5-Diisopropyl-4-hydroxyphenyl)-2-(4-fluorophenylsulfonyl)acrylonitrile] | 9.2 | 35 | 91 |
| N#C/C(=C\c1ccc(O)cc1Cl)S(=O)(=O)NCCCc1ccccc1 [Compound 734] | 51 | – | – |
| CC(C)c1cc(/C=C(\C#N)S(=O)(=O)/C(C#N)=C/c2cc(C(C)C)c(O)c(C(C)C)c2)cc(C(C)C)c1O [Compound 745] | 27 | – | – |
| CC(C)c1cc(/C=C(\C#N)S(=O)(=O)c2ccccc2)cc(C(C)C)c1O [Compound 731] | 12 | 25 | 92 |
| N#C/C(=C\c1ccc(O)cc1Cl)S(=O)(=O)NCc1ccccc1 [Compound 733] | > 100 | – | – |
| CC(C)c1cc(/C=C(\C#N)S(=O)(=O)NCc2ccccc2)cc(C(C)C)c1O [Compound 732] | 8.8 | 9.2 | 79 |
